# Assay results as given in US11701376B2, “Nutritional compositions comprising human milk oligosaccharides and nucleotides and uses thereof for treating and/or preventing enteric viral infection” (priority 2010, dated 2023).
# How the values were obtained:
# [1] = system: monocyte-derived cytokines; assay: Monocyte-derived cytokines in peripheral blood mononuclear cells with or without RSV (Example 49); type: cell-based, Human
# Protocol: (§1) Specifically, either 3′SL or 6′SL is added, at concentrations of 0.1 mg/mL, 0.2 mg/mL, or 0.5 mg/mL to fresh peripheral blood mononuclear cells and incubated at 37° C. in 5% CO2 to pretreat the cells for approximately 24 hours. LNnT is added, at concentrations of 0.1 mg/mL, 0.2 mg/mL, or 1 mg/mL to fresh peripheral blood mononuclear cells and incubated at 37° C. in 5% CO2 to pretreat the cells for approximately 24 hours. Lactose is included as a carbohydrate control. Matched endotoxin unit concentration controls are included to allow differentiation of ingredient effects from inherent low levels of endotoxin. Some variables are then incubated with RSV at a multiplicity of infection (MOI) of 0.1 for approximately 1 hour at 37° C. in 5% in CO2. Uninfected control variables are incubated with medium for approximately 1 hour at 37° C. in 5% CO2. Supernatants are collected at 24 and 48 hours post-infection.
# (§2) Cytokines are measured in supernatants for each variable at 24 and 48 hours to assess the effects of HMOs on the early immune response to RSV. Cytokines are measured using custom Bio-Plex Human cytokine kits from Bio-Rad. Results for interferon-inducible protein 10 (IP-10, also known as CXCL 10) are shown in FIGS. 3 and 4 for 3′SL and 6′SL, and in FIGS. 5 and 6 for LNnT. IP-10 is a CXC chemokine that attracts, binds to and activates the CXCR3 receptor on natural killer cells and memory T cells. IP-10 is expressed by monocytes and a number of other cells, and is induced by interferon. A positive correlation exists between RSV clinical disease severity in children (as measured by: length of hospital stay, fever, and number of days supplemental O2 is required) and serum IP-10. Therefore, a decrease in IP-10 signals a decrease in severity of RSV disease experienced.
# [2] = system: respiratory syncytial virus (RSV); assay: In vitro inhibition of viral infectivity, RSV (Example 46); type: cell-based; details: co-incubation of virus with HMO at 1 or 10 mg/mL
# Protocol: In this Example, the effect of purified human milk oligosaccharides (HMO) on in vitro inhibition of viral infectivity is analyzed.
# Samples are prepared by co-incubation of a uniform virus dose of from about 500 units/mL to about 1,000 units/mL of one of three respiratory viruses: (1) respiratory syncytial virus (RSV); (2) human parainfluenza virus (HPIV3); or (3) H1N1 influenza virus with one of the following HMOs: (1) 3′-sialyllactose (3′SL); (2) 6′-sialyllactose (6′SL); (3) 3′-fucosyllactose (3′FL); (4) 2′-fucosyllactose (2′FL); (5) lacto-N-neotetraose (LNnT); or (6) sialic acid (SA). The HMOs are added at concentrations of either 1 mg/mL or 10 mg/mL.
# [3] = system: human parainfluenza virus (HPIV3); type: cell-based; details: co-incubation of virus with HMO at 1 or 10 mg/mL
# [4] = system: interferon-inducible protein 10 (IP-10); assay: IP-10 in supernatants of RSV-infected peripheral blood mononuclear cells (Example 49); type: cell-based, Human; details: for IP-10 in virus-infected variables, both donors: RSV MOI 0.1, 0.1-0.5 mg/mL (LNnT 0.1-1 mg/mL); for reducing inflammation caused by RSV: pretreatment for 24 hours; for IP-10 level relative to uninfected controls: RSV-infected PBMC; for dampening virus-induced inflammation as measured by a decrease in IP-10, comparison: compared with 3′SL
# Protocol: as §1, §2
# H1N1 influenza virus [5] = type: cell-based; details: for IC50 (mg HMO/mL) H1N1 Influenza: co-incubation of virus with HMO at 1 or 10 mg/mL
# rotavirus = assay: NSP4 mRNA expression in rotavirus-treated ileal loops of piglets (Example 50); type: in vivo; details: HMO about 2 mg/mL plus rotavirus, 6 hours, vs RV and media
# Protocol: Specifically, HMO and nucleotide treatment within the ileal lumen of both healthy and acutely rotavirus-infected piglets is analyzed.
# Two groups of piglets (both n=9) are fed from age 48 hours to age 21 days either a low nucleotide formula comprising about 72 mg/L of a nucleotide mixture or a high nucleotide formula comprising about 320 mg/L of a nucleotide mixture.
# At day 21, a midline laparotomy is performed and six loops of ilium are isolated in situ. Each loop is about 10 cm long and is followed by an inter-loop segment of about 2 cm. […]
# The following treatments are injected into the loops: media; LNnT; an acidic HMO mixture comprising about 40 wt % 6′SL, about 10 wt % 3′SL, and about 50 wt % sialic acid; media and rotavirus; LNnT and rotavirus; and the acidic HMO mixture comprising about 40 wt % 6′SL, about 10 wt % 3′SL, and about 50 wt % sialic acid and rotavirus. […] Each loop is treated for 6 hours, and post-treatment reverse transcriptase products from ilium mucosal cells are analyzed by quantitative real-time PCR in TaqMan gene expression assays of the target genes NSP4, IL-8, and TNF-α. […] The expression levels of genes of interest are standardized to RPL19 mRNA and expressed as fold differences which correspond to a ratio to the mean value for the control group.
# interleukin 10 (IL-10) = assay: IL-10 in supernatants of peripheral blood mononuclear cells with or without RSV (Example 49); type: cell-based, Human; details: in the presence or absence of RSV
# Protocol: as §1
# Cytokines are measured in supernatants for each variable at 24 and 48 hours to assess the effects of HMOs on the early immune response to RSV. Cytokines are measured using custom Bio-Plex Human cytokine kits from Bio-Rad. […] A positive correlation exists between RSV clinical disease severity in children (as measured by: length of hospital stay, fever, and number of days supplemental O2 is required) and serum IP-10. […]
# H1N1 influenza virus [6] = type: cell-based; details: HMO at 10 mg/mL, MDCK cells, FIG. 1
# [7] = in the presence or absence of the virus
structure (smiles),measurement,setting,value
"CC(=O)N[C@H]1[C@H]([C@H](O)[C@H](O)CO)O[C@@](O[C@H]2[C@@H](O)[C@@H](CO)O[C@@H](O[C@H]3[C@H](O)[C@@H](O)C(O)O[C@@H]3CO)[C@@H]2O)(C(=O)O)C[C@@H]1O (some centres unmarked) [3′SL, 3′-sialyllactose]","immunomodulation, production of monocyte-derived cytokines",[1]; [7],immunomodulatory
same,IC50 (mg HMO/mL) RSV,[2],>10 mg HMO/mL
same,IC50 (mg HMO/mL) HPIV3,[3],>10 mg HMO/mL
same,"IP-10 in virus-infected variables, both donors",[4]; 24 hours pretreatment,dampen RSV-induced IP-10
same,"RSV-induced IP-10, Donor B","[4]; Donor B, 24 hours pretreatment, RSV MOI 0.1",not effective
same,"RSV-induced IP-10, Donor E","[4]; Donor E, 24 hours pretreatment, RSV MOI 0.1",downregulates RSV-induced IP-10
same,reducing inflammation caused by RSV,[4],effective in reducing inflammation caused by RSV
same,"anti-viral activity, H1N1 influenza virus",H1N1 influenza virus [5]; HMO at 1 mg/mL,inhibited
same,IC50 (mg HMO/mL) H1N1 Influenza,H1N1 influenza virus [5],~5 mg HMO/mL
"CC(=O)N[C@H]1[C@H](O[C@H]2[C@@H](O)[C@@H](CO)O[C@@H](O[C@H]3[C@H](O)[C@@H](O)C(O)O[C@@H]3CO)[C@@H]2O)O[C@H](CO)[C@@H](O[C@@H]2O[C@H](CO)[C@H](O)[C@H](O)[C@H]2O)[C@@H]1O (mixture of isomers) [LNnT, lacto-N-neotetraose]","immunomodulation, production of monocyte-derived cytokines",[1]; [7],immunomodulatory
same,IC50 (mg HMO/mL) RSV,[2],>10 mg HMO/mL
same,NSP4 expression,rotavirus; high nucleotide formula fed group (about 320 mg/L),reduced NSP4 expression
same,NSP4 expression,rotavirus; low nucleotide formula fed group (about 72 mg/L),reduced NSP4 expression
same,"IP-10 in virus-infected variables, both donors",[4]; 24 hours pretreatment,clearly downregulates IP-10
same,IP-10 level relative to uninfected controls,[4],reduce IP-10 to levels found in uninfected controls
same,"dampening virus-induced inflammation as measured by a decrease in IP-10, comparison",[4],more effective than 3′SL
same,reducing inflammation caused by RSV,[4],effective in reducing inflammation caused by RSV
same,IC50 (mg HMO/mL) H1N1 Influenza,H1N1 influenza virus [5],>10 mg HMO/mL
same,IL-10 concentration,interleukin 10 (IL-10),increases IL-10 concentration in a dose-dependent manner
"CC(=O)N[C@H]1[C@H]([C@H](O)[C@H](O)CO)O[C@@](OC[C@H]2O[C@@H](O[C@H]3[C@H](O)[C@@H](O)[C@H](O)O[C@@H]3CO)[C@H](O)[C@@H](O)[C@H]2O)(C(=O)O)C[C@@H]1O [6′SL, 6′-sialyllactose]","immunomodulation, production of monocyte-derived cytokines",[1]; in the absence of the virus,immunomodulatory
same,IC50 (mg HMO/mL) RSV,[2],>10 mg HMO/mL
same,IC50 (mg HMO/mL) HPIV3,[3],>10 mg HMO/mL
same,"IP-10 in virus-infected variables, both donors",[4]; 24 hours pretreatment,clearly downregulates IP-10
same,IP-10 level relative to uninfected controls,[4],reduce IP-10 to levels found in uninfected controls
same,"dampening virus-induced inflammation as measured by a decrease in IP-10, comparison",[4],more effective than 3′SL
same,reducing inflammation caused by RSV,[4],effective in reducing inflammation caused by RSV
same,inhibition of virus infectivity,H1N1 influenza virus [6],approximately 60%
same,IC50 (mg HMO/mL) H1N1 Influenza,H1N1 influenza virus [5],~10 mg HMO/mL
same,IL-10 concentration,interleukin 10 (IL-10),increases interleukin 10 (IL-10) concentration in a dose-dependent manner
